Data published in ChEMBL document CHEMBL4507272 (2021).

Experiments:
[1] = target: Proto-oncogene tyrosine-protein kinase ROS (Homo sapiens) (UniProt P08922); settings: Compound concentration 1000.0 nM
[2] = target: Fibroblast growth factor receptor 4 (Homo sapiens) (UniProt P22455); settings: Compound concentration 1000.0 nM
[3] = target: Tyrosine-protein kinase CSK (Homo sapiens) (UniProt P41240); settings: Compound concentration 1000.0 nM
[4] = target: Ribosomal protein S6 kinase alpha-3 (Homo sapiens) (UniProt P51812); settings: Compound concentration 1000.0 nM
[5] = target: Hepatocyte growth factor receptor (Homo sapiens) (UniProt P08581); settings: Compound concentration 1000.0 nM
[6] = target: Serine/threonine-protein kinase MRCK beta (Homo sapiens) (UniProt Q9Y5S2); settings: Compound concentration 1000.0 nM
[7] = target: Mitogen-activated protein kinase 8 (Homo sapiens) (UniProt P45983); settings: Compound concentration 1000.0 nM
[8] = target: Ribosomal protein S6 kinase alpha-1 (Homo sapiens) (UniProt Q15418); settings: Compound concentration 1000.0 nM
Rattus norvegicus = organism: Rattus norvegicus; settings: Compound concentration 10.0 uM
[9] = target: Serine/threonine-protein kinase MRCK gamma (Homo sapiens) (UniProt Q6DT37); settings: Compound concentration 1000.0 nM
[10] = target: Serine/threonine-protein kinase VRK2 (Homo sapiens) (UniProt Q86Y07); settings: Compound concentration 1000.0 nM
[11] = system: Mast/stem cell growth factor receptor Kit (Homo sapiens), P10721 [L576P]; settings: Compound concentration 1000.0 nM
[12] = system: Phosphatidylinositol 4,5-bisphosphate 3-kinase catalytic subunit alpha isoform (Homo sapiens), P42336 [E545A]; settings: Compound concentration 1000.0 nM
[13] = target: Alpha-1D adrenergic receptor (Homo sapiens) (UniProt P25100); settings: Compound concentration 10.0 uM
[14] = target: Myosin light chain kinase family member 4 (Homo sapiens) (UniProt Q86YV6); settings: Compound concentration 1000.0 nM
[15] = system: Receptor-type tyrosine-protein kinase FLT3 (Homo sapiens), P36888 [UNDEFINED MUTATION]; settings: Compound concentration 1000.0 nM
[16] = target: Ephrin type-B receptor 3 (Homo sapiens) (UniProt P54753); settings: Compound concentration 1000.0 nM
[17] = target: Transient receptor potential cation channel subfamily M member 6 (Homo sapiens) (UniProt Q9BX84); settings: Compound concentration 1000.0 nM
[18] = system: Epidermal growth factor receptor (Homo sapiens), P00533 [L858R]; settings: Compound concentration 1000.0 nM
[19] = target: Serine/threonine-protein kinase 32C (Homo sapiens) (UniProt Q86UX6); settings: Compound concentration 1000.0 nM
[20] = target: Mast/stem cell growth factor receptor Kit (Homo sapiens) (UniProt P10721); settings: Compound concentration 1000.0 nM
[21] = target: Mitogen-activated protein kinase kinase kinase kinase 4 (Homo sapiens) (UniProt O95819); settings: Compound concentration 1000.0 nM
[22] = target: Serine/threonine-protein kinase TAO3 (Homo sapiens) (UniProt Q9H2K8); settings: Compound concentration 1000.0 nM
[23] = target: Tyrosine-protein kinase JAK1 (Homo sapiens) (UniProt P23458); settings: Compound concentration 1000.0 nM
[24] = system: Tyrosine-protein kinase ABL1 (Homo sapiens), P00519 [T315I]; settings: Compound concentration 1000.0 nM
[25] = target: Ephrin type-A receptor 8 (Homo sapiens) (UniProt P29322); settings: Compound concentration 1000.0 nM
[26] = target: Tyrosine-protein kinase Fes/Fps (Homo sapiens) (UniProt P07332); settings: Compound concentration 1000.0 nM
[27] = target: Beta-3 adrenergic receptor (Homo sapiens) (UniProt P13945); settings: Compound concentration 10.0 uM
[28] = target: Ribosomal protein S6 kinase alpha-4 (Homo sapiens) (UniProt O75676); settings: Compound concentration 1000.0 nM
[29] = system: Proto-oncogene tyrosine-protein kinase receptor Ret (Homo sapiens), P07949 [M918T]; settings: Compound concentration 1000.0 nM
[30] = system: Phosphatidylinositol 4,5-bisphosphate 3-kinase catalytic subunit alpha isoform (Homo sapiens), P42336 [I800L]; settings: Compound concentration 1000.0 nM
[31] = target: Serine/threonine-protein kinase Chk2 (Homo sapiens) (UniProt O96017); settings: Compound concentration 1000.0 nM
[32] = target: Aurora kinase B (Homo sapiens) (UniProt Q96GD4); settings: Compound concentration 1000.0 nM
[33] = target: Serine/threonine-protein kinase haspin (Homo sapiens) (UniProt Q8TF76); settings: Compound concentration 1000.0 nM
[34] = target: Casein kinase II subunit alpha' (Homo sapiens) (UniProt P19784); settings: Compound concentration 1000.0 nM
[35] = target: Bone morphogenetic protein receptor type-1A (Homo sapiens) (UniProt P36894); settings: Compound concentration 1000.0 nM
[36] = target: Phosphatidylinositol 5-phosphate 4-kinase type-2 gamma (Homo sapiens) (UniProt Q8TBX8); settings: Compound concentration 1000.0 nM
[37] = target: Wee1-like protein kinase (Homo sapiens) (UniProt P30291); settings: Compound concentration 1000.0 nM
[38] = target: Ribosomal protein S6 kinase alpha-6 (Homo sapiens) (UniProt Q9UK32); settings: Compound concentration 1000.0 nM
[39] = target: Serine/threonine-protein kinase TAO2 (Homo sapiens) (UniProt Q9UL54); settings: Compound concentration 1000.0 nM
[40] = target: Cyclin-dependent kinase 7 (Homo sapiens) (UniProt P50613); settings: Compound concentration 1000.0 nM
[41] = target: 5'-AMP-activated protein kinase catalytic subunit alpha-1 (Homo sapiens) (UniProt Q13131); settings: Compound concentration 1000.0 nM
[42] = target: Insulin-like growth factor 1 receptor (Homo sapiens) (UniProt P08069); settings: Compound concentration 1000.0 nM
[43] = system: Tyrosine-protein kinase ABL1 (Homo sapiens), P00519 [H396P]; settings: Compound concentration 1000.0 nM
[44] = target: Serine/threonine-protein kinase tousled-like 1 (Homo sapiens) (UniProt Q9UKI8); settings: Compound concentration 1000.0 nM

Sequence of Ribosomal protein S6 kinase alpha-3 (Homo sapiens) (P51812 whole entry): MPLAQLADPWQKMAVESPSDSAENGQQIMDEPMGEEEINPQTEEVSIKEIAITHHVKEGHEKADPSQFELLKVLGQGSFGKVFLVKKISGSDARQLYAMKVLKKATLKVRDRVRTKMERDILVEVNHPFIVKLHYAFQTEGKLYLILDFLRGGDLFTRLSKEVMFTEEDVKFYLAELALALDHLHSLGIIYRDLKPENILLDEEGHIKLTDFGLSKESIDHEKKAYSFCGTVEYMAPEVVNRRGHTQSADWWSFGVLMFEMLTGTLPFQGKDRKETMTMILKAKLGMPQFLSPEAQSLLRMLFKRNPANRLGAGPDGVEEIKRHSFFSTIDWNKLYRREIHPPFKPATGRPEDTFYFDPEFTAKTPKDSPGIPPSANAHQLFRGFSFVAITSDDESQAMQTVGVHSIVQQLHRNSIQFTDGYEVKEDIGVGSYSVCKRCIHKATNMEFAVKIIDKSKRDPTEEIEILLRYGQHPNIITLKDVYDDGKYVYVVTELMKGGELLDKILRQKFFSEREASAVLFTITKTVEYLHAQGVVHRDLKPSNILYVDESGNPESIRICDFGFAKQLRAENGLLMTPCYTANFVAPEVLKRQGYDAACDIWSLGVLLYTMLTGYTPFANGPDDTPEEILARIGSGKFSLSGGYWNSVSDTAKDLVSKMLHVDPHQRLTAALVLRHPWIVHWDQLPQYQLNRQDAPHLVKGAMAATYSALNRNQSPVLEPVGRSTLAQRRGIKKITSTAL
Sequence of Tyrosine-protein kinase Fes/Fps (Homo sapiens) (P07332 whole entry): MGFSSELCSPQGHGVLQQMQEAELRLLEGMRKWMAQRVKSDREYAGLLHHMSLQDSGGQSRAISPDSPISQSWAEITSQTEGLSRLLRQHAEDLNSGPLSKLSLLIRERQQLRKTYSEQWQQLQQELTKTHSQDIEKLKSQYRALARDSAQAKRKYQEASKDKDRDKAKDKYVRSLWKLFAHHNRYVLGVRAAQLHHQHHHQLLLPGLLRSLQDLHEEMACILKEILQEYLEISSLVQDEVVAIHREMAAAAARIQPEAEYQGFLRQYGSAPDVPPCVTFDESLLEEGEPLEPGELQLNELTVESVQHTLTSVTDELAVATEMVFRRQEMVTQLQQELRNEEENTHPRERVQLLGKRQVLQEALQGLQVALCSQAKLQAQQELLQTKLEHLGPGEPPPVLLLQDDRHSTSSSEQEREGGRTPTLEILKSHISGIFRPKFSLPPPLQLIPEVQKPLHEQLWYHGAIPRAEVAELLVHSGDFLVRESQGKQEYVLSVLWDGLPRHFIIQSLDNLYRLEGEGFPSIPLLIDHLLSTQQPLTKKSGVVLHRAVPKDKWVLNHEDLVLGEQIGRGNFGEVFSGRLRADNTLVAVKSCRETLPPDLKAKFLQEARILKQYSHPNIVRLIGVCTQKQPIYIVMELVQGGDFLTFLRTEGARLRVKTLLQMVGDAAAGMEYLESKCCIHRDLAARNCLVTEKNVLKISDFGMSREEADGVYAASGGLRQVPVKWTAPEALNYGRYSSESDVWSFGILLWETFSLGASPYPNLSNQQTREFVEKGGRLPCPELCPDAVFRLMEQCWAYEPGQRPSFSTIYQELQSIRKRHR
Sequence of Ribosomal protein S6 kinase alpha-4 (Homo sapiens) (O75676 whole entry, looked up): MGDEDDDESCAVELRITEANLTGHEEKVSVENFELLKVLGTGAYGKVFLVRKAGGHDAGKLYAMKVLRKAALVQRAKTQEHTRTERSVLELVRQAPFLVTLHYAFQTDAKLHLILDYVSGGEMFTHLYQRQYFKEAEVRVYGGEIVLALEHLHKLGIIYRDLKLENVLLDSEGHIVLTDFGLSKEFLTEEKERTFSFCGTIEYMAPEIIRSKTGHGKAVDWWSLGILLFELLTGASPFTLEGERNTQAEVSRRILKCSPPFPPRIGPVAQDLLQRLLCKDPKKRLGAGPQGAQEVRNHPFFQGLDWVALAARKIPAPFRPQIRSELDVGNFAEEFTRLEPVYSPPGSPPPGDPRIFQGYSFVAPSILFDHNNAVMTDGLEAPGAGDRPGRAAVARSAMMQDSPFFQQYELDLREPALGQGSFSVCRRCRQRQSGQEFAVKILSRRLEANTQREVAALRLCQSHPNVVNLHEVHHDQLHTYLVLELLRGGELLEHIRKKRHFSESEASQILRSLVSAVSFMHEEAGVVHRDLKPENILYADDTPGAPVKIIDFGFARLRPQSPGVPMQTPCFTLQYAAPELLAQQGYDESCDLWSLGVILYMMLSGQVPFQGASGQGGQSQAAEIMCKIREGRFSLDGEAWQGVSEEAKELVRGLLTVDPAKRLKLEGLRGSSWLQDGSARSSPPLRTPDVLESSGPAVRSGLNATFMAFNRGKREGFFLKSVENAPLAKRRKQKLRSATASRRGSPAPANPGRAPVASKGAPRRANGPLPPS
Sequence of Tyrosine-protein kinase JAK1 (Homo sapiens) (P23458 whole entry): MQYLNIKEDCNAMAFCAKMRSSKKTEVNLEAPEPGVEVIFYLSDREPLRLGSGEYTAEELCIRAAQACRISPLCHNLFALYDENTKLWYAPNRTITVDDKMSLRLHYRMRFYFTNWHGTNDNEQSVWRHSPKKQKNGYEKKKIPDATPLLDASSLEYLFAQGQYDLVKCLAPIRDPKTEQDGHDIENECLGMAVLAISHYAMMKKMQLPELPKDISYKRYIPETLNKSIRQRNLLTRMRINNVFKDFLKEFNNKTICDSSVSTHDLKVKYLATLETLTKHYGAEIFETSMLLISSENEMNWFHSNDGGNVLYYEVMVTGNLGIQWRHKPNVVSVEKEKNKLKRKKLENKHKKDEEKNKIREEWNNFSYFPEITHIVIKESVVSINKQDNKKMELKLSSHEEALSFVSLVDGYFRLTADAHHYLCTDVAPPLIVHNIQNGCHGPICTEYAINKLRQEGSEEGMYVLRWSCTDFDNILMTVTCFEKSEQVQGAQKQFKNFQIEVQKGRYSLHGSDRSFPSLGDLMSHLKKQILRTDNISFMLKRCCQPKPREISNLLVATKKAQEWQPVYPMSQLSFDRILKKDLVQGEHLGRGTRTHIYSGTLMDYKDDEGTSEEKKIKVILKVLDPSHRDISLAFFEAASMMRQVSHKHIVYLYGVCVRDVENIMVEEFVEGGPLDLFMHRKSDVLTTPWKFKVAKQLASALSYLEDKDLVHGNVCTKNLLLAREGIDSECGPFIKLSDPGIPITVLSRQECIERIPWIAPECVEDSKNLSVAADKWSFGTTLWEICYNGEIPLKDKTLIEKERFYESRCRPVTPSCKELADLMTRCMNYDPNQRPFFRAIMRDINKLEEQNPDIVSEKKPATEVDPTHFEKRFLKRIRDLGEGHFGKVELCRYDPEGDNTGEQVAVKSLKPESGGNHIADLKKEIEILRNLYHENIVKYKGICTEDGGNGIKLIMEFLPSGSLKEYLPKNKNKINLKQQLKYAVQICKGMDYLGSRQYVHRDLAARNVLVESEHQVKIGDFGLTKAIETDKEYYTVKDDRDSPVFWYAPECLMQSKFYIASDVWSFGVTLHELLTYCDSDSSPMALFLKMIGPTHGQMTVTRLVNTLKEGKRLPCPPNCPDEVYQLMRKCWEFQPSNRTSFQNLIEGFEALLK
Sequence of Alpha-1D adrenergic receptor (Homo sapiens) (P25100 whole entry): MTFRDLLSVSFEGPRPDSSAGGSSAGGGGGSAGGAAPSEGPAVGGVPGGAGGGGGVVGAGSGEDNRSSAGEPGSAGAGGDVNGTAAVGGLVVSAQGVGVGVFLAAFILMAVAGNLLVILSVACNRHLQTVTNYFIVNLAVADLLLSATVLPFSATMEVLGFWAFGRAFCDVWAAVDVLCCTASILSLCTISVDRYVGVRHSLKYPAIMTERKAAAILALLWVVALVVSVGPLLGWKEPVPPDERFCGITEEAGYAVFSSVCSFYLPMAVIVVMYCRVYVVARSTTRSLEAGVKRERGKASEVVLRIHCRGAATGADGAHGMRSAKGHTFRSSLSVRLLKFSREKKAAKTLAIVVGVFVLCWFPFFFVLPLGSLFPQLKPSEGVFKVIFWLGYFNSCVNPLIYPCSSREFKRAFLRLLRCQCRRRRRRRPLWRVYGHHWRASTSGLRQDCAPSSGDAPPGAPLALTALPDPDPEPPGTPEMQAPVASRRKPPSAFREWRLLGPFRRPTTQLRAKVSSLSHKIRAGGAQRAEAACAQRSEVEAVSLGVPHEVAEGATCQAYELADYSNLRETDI
Sequence of Serine/threonine-protein kinase VRK2 (Homo sapiens) (Q86Y07 whole entry): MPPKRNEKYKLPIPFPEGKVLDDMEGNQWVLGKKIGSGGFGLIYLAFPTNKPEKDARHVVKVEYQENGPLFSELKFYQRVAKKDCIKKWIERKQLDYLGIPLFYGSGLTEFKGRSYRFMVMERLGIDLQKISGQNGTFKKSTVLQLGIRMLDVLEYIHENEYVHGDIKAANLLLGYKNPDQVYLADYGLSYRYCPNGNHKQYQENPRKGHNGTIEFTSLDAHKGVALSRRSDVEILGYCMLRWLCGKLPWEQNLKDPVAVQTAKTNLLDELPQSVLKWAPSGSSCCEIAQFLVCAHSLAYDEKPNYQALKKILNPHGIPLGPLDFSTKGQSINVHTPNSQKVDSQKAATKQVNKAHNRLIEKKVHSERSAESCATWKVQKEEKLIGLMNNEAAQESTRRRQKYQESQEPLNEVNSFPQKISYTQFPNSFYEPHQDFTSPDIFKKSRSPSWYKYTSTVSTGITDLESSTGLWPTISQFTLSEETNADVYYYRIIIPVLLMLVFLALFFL
Sequence of Phosphatidylinositol 5-phosphate 4-kinase type-2 gamma (Homo sapiens) (Q8TBX8 whole entry): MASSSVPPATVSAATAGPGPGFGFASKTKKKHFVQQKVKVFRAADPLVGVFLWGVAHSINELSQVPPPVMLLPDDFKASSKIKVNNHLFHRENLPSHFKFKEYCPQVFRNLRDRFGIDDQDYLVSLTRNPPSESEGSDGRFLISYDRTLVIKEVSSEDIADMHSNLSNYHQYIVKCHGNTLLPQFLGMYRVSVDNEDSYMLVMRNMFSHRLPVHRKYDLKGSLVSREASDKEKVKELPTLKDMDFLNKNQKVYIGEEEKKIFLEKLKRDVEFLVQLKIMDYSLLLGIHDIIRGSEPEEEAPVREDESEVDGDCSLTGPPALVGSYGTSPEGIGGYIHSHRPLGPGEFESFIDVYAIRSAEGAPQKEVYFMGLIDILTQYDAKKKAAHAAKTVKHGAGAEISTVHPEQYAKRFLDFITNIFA

CC(=O)C1=C(C)N(c2cccc(C(F)(F)F)c2)C(=O)N[C@@H]1c1ccc(C#N)nc1 [BAY-678]
inactive: residual activity [1] 100% | residual activity [2] 100% | residual activity [3] 90% | residual activity [4] 100% | residual activity [5] 98.1% | residual activity [6] 100% | residual activity [7] 100% | residual activity [8] 91.5% | inhibition (Rattus norvegicus) 20% | residual activity [9] 79.3% | residual activity [10] 77.6% | residual activity [11] 100% | residual activity [12] 75.6% | inhibition [13] 3.11% | residual activity [14] 100% | residual activity [15] 61.2% | residual activity [16] 100% | residual activity [17] 83.8% | residual activity [18] 80.8% | residual activity [19] 94.1% | residual activity [20] 83.8% | residual activity [21] 99.3% | residual activity [22] 73% | residual activity [23] 100% | residual activity [24] 100% | residual activity [25] 100% | residual activity [26] 84.1% | inhibition [27] -0.551% | residual activity [28] 78.8% | residual activity [29] 100% | residual activity [30] 75.4% | residual activity [31] 85.6% | residual activity [32] 100% | residual activity [33] 100% | residual activity [34] 75.7% | residual activity [35] 100% | residual activity [36] 80.7% | residual activity [37] 100% | residual activity [38] 100% | residual activity [39] 94.4% | residual activity [40] 90.6% | residual activity [41] 85.4% | residual activity [42] 100% | residual activity [43] 100% | residual activity [44] 85.3%
